Measured values: publication PMC10916382, “Repurposing screen identifies novel candidates for broad-spectrum coronavirus antivirals and druggable host targets” (Antimicrobial Agents and Chemotherapy, 2024)
Where a name gives a salt, the structure may show the parent alone. Read-outs that look alike come from different tables or passages of the source. Where a SMILES comes first, the peptide text is derived from it. The star is where a group is joined. Cbz = O=C(OCc1ccccc1)*; CHN2 = [N-]=[N+]=C*

Assays:
HCoV-229E = test: microbe, parasite or virus in culture; type: cell-based, Homo sapiens sapiens
[1] = HCoV 229E infection, dose series, max. dose 5 µM, read-out: IC50
[2] = Huh-7.5 cells, dose series, maximum tested dose 5 µM

Compound | IC50 (HCoV-229E; [1]) | CC50 (µM) (Huh-7.5/F-Luc cells; [2]) | % cell viability at max. dose [5 µM] (Huh-7.5/F-Luc cells; at max. dose 5 µM) | Anti-SARS-CoV-2 screening on Calu-3 cells: viability [% of control] (SARS-CoV-2; Calu-3 cells) | Anti-SARS-CoV-2 screening on Calu-3 cells: intracellular SARS-CoV-2 infection measured via immunofluorescence imaging [% of control] (SARS-CoV-2; Calu-3 cells) | IC50 (HCoV-229E; Human coronavirus 229E, Huh7.5) | % cell viability at max. dose [5 µM] (Huh-7.5/F-Luc cells) | CC50 (µM) (Huh-7.5/F-Luc cells) | Anti-SARS-CoV-2 screening on Calu-3 cells: viability [% of control] (SARS-CoV-2) | IC50 (HCoV-229E; read-out: IC50)
CN(C)CCC(Sc1cccc2ccccc12)c1cccs1 (stereo not shown) [VUFB 18271] | 930 nM | greater than maximum tested dose | 117.62% | 105.83 % of control | 114.60 % of control |  |  |  |  | 
OC(CNCC(O)C1CCc2cc(F)ccc2O1)C1CCc2cc(F)ccc2O1 (stereo not shown) [Nebivolol HCl] |  | greater than maximum tested dose |  |  |  | 1000 nM |  |  |  | 
Oc1ccc2c(c1)CC[C@H](c1ccccc1)[C@H]2c1ccc(OCCN2CCCC2)cc1 [Lasofoxifene tartrate] | 540 nM | greater than maximum tested dose | 142.22% | 103.26 % of control | 99.99 % of control |  |  |  |  | 
CC(C)c1ccc(C(=O)c2cccs2)c(SCCCCCCCCN(C)C)n1 [Y 29794] | 330 nM | greater than maximum tested dose | 121.37% | 88.61 % of control | 99.31 % of control |  |  |  |  | 
CC1(C)CC[C@]2(NC(=O)C(C)(F)F)CC[C@]3(C)[C@H](C(=O)C=C4[C@@]5(C)C=C(C#N)C(=O)C(C)(C)[C@@H]5CC[C@]43C)[C@@H]2C1 [RTA-63415 / Omaveloxolone] | 80 nM |  |  |  | 99.52 % of control |  | 77.27% | greater than maximum tested dose | 122.72 % of control | 
C=C1C[C@@H]2CC[C@@]34C[C@H]5O[C@H]6[C@@H](O3)[C@H]3O[C@H](CC[C@@H]3O[C@H]6[C@H]5O4)CC(=O)C[C@@H]3[C@@H](OC)[C@@H](C[C@H](O)CN)O[C@H]3C[C@H]3O[C@@H](CC[C@@H]1O2)C[C@@H](C)C3=C [Eribulin (mesylate)] | 50 nM | greater than maximum tested dose | 97.37% | 41.43 % of control | 29.49 % of control |  |  |  |  | 
Cc1cccc(/C=N/Nc2cc(N3CCOCC3)nc(OCCc3ccccn3)n2)c1 [Target 16/Apilimod mesilate] | 200 nM | greater than maximum tested dose | 124.74% | 101.93 % of control | 135.01 % of control |  |  |  |  | 
CN1C2CCC1CC(OC(c1ccccc1)c1ccc(Cl)cc1)C2.Cl (stereo not shown) |  | greater than maximum tested dose | 144.12% | 110.96 % of control | 110.06 % of control |  |  |  |  | 690 nM
CC(C)(O)c1ccc2c(c1)/C(=C/CCN1CC[C@](O)(c3ccc(Cl)cc3)C(C)(C)C1)c1cccnc1CO2 [MLN-3897] | 960 nM | greater than maximum tested dose | 122.09% | 106.59 % of control | 101.50 % of control |  |  |  |  | 
CC/C(=C(\c1ccc(O)cc1)c1ccc(OCCNC)cc1)c1ccccc1.Cl [Endoxifen (hydrochloride)] | 560 nM | greater than maximum tested dose | 148.79% | 90.44 % of control | 114.51 % of control |  |  |  |  | 
CC(C)CC(NC(=O)OCc1ccccc1)C(=O)NC(C(=O)NCC(=O)C=[N+]=[N-])C(C)C (stereo not drawn) [Z LVG CHN2] (Cbz-Leu-Val-Gly-CHN2; configuration not given here) |  | greater than maximum tested dose | 182.31% | 97.82 % of control | 105.09 % of control |  |  |  |  | 70 nM
